Holding throughout (assay type): biochemical
Assay [1] deals with T1, 17(alpha)-hydroxylase/17,20-lyase enzyme (Rattus norvegicus, UniProt P11715).
T1 sequence (P11715 1-507): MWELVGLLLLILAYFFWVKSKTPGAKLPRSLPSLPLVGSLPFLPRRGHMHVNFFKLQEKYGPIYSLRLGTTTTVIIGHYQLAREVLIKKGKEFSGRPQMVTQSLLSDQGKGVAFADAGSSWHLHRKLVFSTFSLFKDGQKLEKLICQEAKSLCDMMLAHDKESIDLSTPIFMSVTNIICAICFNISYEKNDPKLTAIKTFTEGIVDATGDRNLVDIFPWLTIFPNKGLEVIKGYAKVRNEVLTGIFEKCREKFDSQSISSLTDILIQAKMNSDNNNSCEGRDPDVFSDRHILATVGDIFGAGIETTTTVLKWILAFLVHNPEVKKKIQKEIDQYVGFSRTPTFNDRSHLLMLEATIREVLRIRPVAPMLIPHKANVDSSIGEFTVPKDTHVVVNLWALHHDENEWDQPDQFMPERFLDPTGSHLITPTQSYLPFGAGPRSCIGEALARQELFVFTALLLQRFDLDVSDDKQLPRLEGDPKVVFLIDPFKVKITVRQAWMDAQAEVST
In words: 17(alpha)-hydroxylase/17,20-lyase inhibition, rat testicular microsomes (Example 1). As to conditions: result in words. As to the method: Testes were obtained from 220°-250g adult male Sprague-Dawley rats (Charles River), immediately frozen in liquid nitrogen and stored at -70° C. After thawing in the ice bath, the testes were minced and homogenized in 0.25M sucrose (1:4 w/v), then centrifuged at 12,000×gfor 30 min and the resulting supernatant centrifuged at 105,000×g for one hour. The supernatant was then decanted and the pellet containing the microsomes was resuspended in 0.1M sodium phosphate buffer (pH 7.4) (2.5g wet weight of tissue/ 2 ml buffer). All the above procedures were performed at 4C. The microsomal fraction was stored at -70C. Just before use, microsomes were diluted to the concentration of 1.25 g wet weight of tissue/10 ml phosphate buffer.
The incubation was stopped by cooling the mixture in an ice bath and adding 2 ml ether to each incubation tube. The ^3 H-labelled steriods (progesterone P4; 17(alpha)-hydroxyprogesterone 170HP4, androstenedione A and testosterone T, 8,000dpm each) were added as recovery markers and the steroids were extracted with ether (2 ml×3). The ether was evaporated with air. Steroid carriers (P4, 17-0HP4, A and T, 4 micrograms each) were added to the extracts which were then applied to thin layer chromatography (TLC) plates for separation of the steroids. […] After evaporating the ether, the steroids were dissolved in counting cocktail and the radioactivity measured. The recovery of steroids calculated from the ^3 H-labelled markers was between 80 to 90 percent and the enzyme activity was determined from the percentage conversion of [4-C^14 ]-progesterone to 170HP4, A and T.
C^17,20 -Lyase: The procedure for measurement of the C17,20 -lyase was similar to the procedure for the 17(alpha)-hydroxylase, except that the substrate was 17(alpha)-hydroxy-[[1,2,6,7-^3 H]-progesterone (various concentration, 10^5 dpm) and recovery markers were [4-^14 C]-labelled steroids. […] The enzyme activity was determined from the percent conversion of 17(alpha)-hydroxy-[1,2,6,7-3H]-progesterone to A and T.

Assay [2] concerns the target T2, rat testicular 17(alpha)-hydroxylase/C17,20-lyase (Rattus norvegicus, UniProt P11715).
T2 construct: rat testicular homogenates (prepared from 220-250g adult male Sprague-Dawley rats); from tissue; host or cells: testes of adult male Sprague-Dawley rats, homogenate
T2 sequence (P11715 1-507): T1 sequence (P11715 1-507)
In words: Hydroxylase/lyase assay, rat testicular homogenates, [21-14C]progesterone (Example 4, Table 3). The conditions noted are these: 0.75 h. The method, then:
The assay was performed by incubation of rat testicular homogenates (prepared from 220-250g adult male Sprague-Dawley rats, approx. 3.5 mg protein) with [21-^14 C]progesterone (40uM, 5×10^4 dpm), NADPH generating system and candidate inhibitors in phosphate buffer (pH 7.4, total volume 500ul) under oxygen for 45 min at 37° C. Two ml of choloroform was added to each tube to stop the reaction. The steriods were extracted with chloroform and the aqueous phase was treated with charcoal. The side chain cleavage product [2-^14 C]acetic acid in the aqueous phase was mixed with 3a70B counting cocktail and counted on the Rack Beta II liquid scintillation counter. The enzyme activity was determined from the conversion of progesterone P4 to [2-^14 C]acetic acid.

The target of assay [3] is T3, 17(alpha)-hydroxylase/C17,20-lyase (Rattus norvegicus, UniProt P11715).
T3 construct: with rat testis homogenates (2.7 mg protein in 0.5 ml phosphate buffer); from tissue; host or cells: rat testis homogenate
T3 sequence (P11715 1-507): T1 sequence (P11715 1-507)
The assay can be described thus: Hydroxylase/lyase assay, rat testis homogenates, [21-14C]-progesterone side-chain cleavage (Examples 2 and 3, Table 2). As to conditions: progesterone 40 microM, 45 min. The method, then: Compounds I-16 and I-25 were synthesized according to known procedures. The compounds were then assayed for their ability to inhibit the 17(alpha)-hydroxylase/C17,20 -lyase enzyme and the 5(alpha)-reductaseenzyme. The hydroxylase/lyase assay was carried out by incubation of [21-^14 C]-progesterone (40 microM, 70,000 dpm) and candidate inhibitors with rat testis homogenates (2.7 mg protein in 0.5 ml phosphate buffer), NADPH generating system under oxygen for 45 minutes. The enzyme activity was measured according to the conversion of progesterone to the product of C17,20 -side chain cleavage ([2-^14 C]-acetic acid). […] The results were based on the TLC separation.

Where [4] appears, read: pH 7.4, read-out: Inhibition of 17(alpha)-hydroxylase/C17,20-lyase (%), [I] = 10 × [S].
[5] abbreviates: pH 7.4, read-out: Inhibition of 17(alpha)-hydroxylase/C17,20-lyase (%), [I] = [S].
The mark [6] stands for this setting: [I] = 10 × [S], progesterone 40uM, pH 7.4, 45 min, 37 C, read-out: Inhibition of 17(alpha)-hydroxylase/C17,20-lyase (%), [I] = 10 × [S].
[7] abbreviates: [I] = [S], progesterone 40uM, pH 7.4, 45 min, 37 C, read-out: Inhibition of 17(alpha)-hydroxylase/C17,20-lyase (%), [I] = [S].

Like-named read-outs stand apart in the source and are kept apart here.

With `C[C@]12CCC(=O)C(O)=C1CC[C@@H]1[C@@H]2CC[C@]2(C)C(=O)CC[C@@H]12` [Compound 4-OHA, 4-hydroxy androstenedione, reference compound], the “inhibition of the 17(alpha)-hydroxylase/17,20-lyase enzyme” value in assay [1] was “did not show any inhibition”.
`CC(=NO)[C@H]1CC[C@H]2[C@@H]3CC=C4C[C@@H](O)CC[C@]4(C)[C@H]3CC[C@]12C` [Compound I-1]: the inhibition at 400 µM in assay [2] (setting [4]) stood at 29.2%. Further, the inhibition at 40 µM in assay [2] (setting [5]) is 15%.
Consider `CC(=NO)C1=CC[C@H]2[C@@H]3CC=C4C[C@@H](O)CC[C@]4(C)[C@H]3CC[C@]12C` [Compound I-5], for which, in assay [2] (setting [4]), the inhibition at 400 µM was found to be 51.8%. Also, the inhibition at 40 µM in assay [2] (setting [5]) came out at 25.2%.
The matching figures for `C[C@]12CC[C@H]3[C@@H](CC=C4C[C@@H](O)CC[C@@]43C)[C@@H]1CC[C@@H]2[C@]1(C)CO1` [Compound I-7, (20R)-20,21-epoxy-20-methyl-5-pregnen-3(beta)ol]: 28.3% and 21.6%.
Take `C[C@]12CC[C@H]3[C@@H](CC=C4C[C@@H](O)CC[C@@]43C)[C@@H]1CC[C@@H]2[C@@]1(C)CO1` [Compound I-8, (20S)-20,21-epoxy-20-methyl-5-pregnen-3(beta)-ol]: the inhibition at 400 µM in assay [2] (setting [4]) was 29.4%. For the same compound, in assay [2] (setting [5]), the inhibition at 40 µM stood at 16.3%.
Take `C[C@H](N)[C@H]1CC[C@H]2[C@@H]3CC=C4C[C@@H](O)CC[C@]4(C)[C@H]3CC[C@]12C` [Compound I-9]: the inhibition at 400 µM in assay [2] (setting [4]) was 27.3%. For the same compound, the inhibition at 40 µM in assay [2] (setting [5]) is 13.6%.
Taken in the same sequence, the figures for `C[C@@H](N)[C@H]1CC[C@H]2[C@@H]3CC=C4C[C@@H](O)CC[C@]4(C)[C@H]3CC[C@]12C` [Compound I-10] were 33.8% and 8.54%.
As to `CC(=NN)[C@H]1CC[C@H]2[C@@H]3CC=C4C[C@@H](O)CC[C@]4(C)[C@H]3CC[C@]12C` [Compound I-12], the inhibition at 400 µM in assay [2] (setting [6]) came out at 25.9%. Moreover, the inhibition at 40 µM in assay [2] (setting [7]) came out at 8.55%.
The matching figures for `CC(=NN(C)C)C1=CC[C@H]2[C@@H]3CC=C4C[C@@H](O)CC[C@]4(C)[C@H]3CC[C@]12C` [Compound I-14, 5,16-Pregnadien-3(beta)-ol-20-one N,N-dimethyl hydrazone]: 2.34% and 10.2%.
Taken in the same sequence, the figures for `C[C@H](C=NN(C)C)[C@H]1CC[C@H]2[C@@H]3CCC4=CC(=O)CC[C@]4(C)[C@H]3CC[C@]12C` [Compound I-15, 4-pregnen-3-oxo-20(beta)-carboxaldehyde N,N-dimethyl hydrazone] were 52.7% and 22.4%.
As to `C[C@H](C=O)[C@H]1CC[C@H]2[C@@H]3CCC4=CC(=O)CC[C@]4(C)[C@H]3CC[C@]12C` [Compound I-16, 4-pregnen-3-one-20(beta)carboxaldehyde], in assay [3], the “% Inhibition of 17(alpha)hydroxylase/lyase, [I] = 10 × [S]” value was 89.95% and the “% Inhibition of 17(alpha)hydroxylase/lyase, [I] = [S]” value is recorded as 61.76%.
Regarding `CC(=O)[C@@]12O[C@@H]1C[C@H]1[C@@H]3CCC4=CC(=O)CC[C@]4(C)[C@H]3CC[C@@]12C` [Compound I-18], the inhibition at 400 µM in assay [2] (setting [6]) came out at 64.2%. The inhibition at 40 µM in assay [2] (setting [7]) turned out to be 26.5%.
As to `CC(=O)OC1=CC2=CC[C@H]3[C@@H]4CC[C@H]([C@H](C)C#N)[C@@]4(C)CC[C@@H]3[C@@]2(C)CC1` [Compound I-24], the inhibition at 400 µM in assay [2] (setting [6]) came out at 67.2%. The inhibition at 40 µM in assay [2] (setting [7]) amounted to 33.6%.
Take `CC(O)(C#N)[C@H]1CC[C@H]2[C@@H]3CCC4=CC(=O)CC[C@]4(C)[C@H]3CC[C@]12C` (stereo partly drawn) [Compound I-25, 20-cyano-20-hydroxy-4-pregnen-3-one]: in assay [3], the “% Inhibition of 17(alpha)hydroxylase/lyase, [I] = 10 × [S]” value turned out to be 89.32% and the “% Inhibition of 17(alpha)hydroxylase/lyase, [I] = [S]” value is 50.63%.
In the case of `CC(C#N)=C1CC[C@H]2[C@@H]3CCC4=CC(=O)CC[C@]4(C)[C@H]3CC[C@]12C` [Compound I-26, 20-cyano-4,17(20)-pregnadien-3-one], the inhibition at 400 µM in assay [2] (setting [4]) came out at 89.7%. Moreover, the inhibition at 40 µM in assay [2] (setting [5]) was 53.5%.
As for `C=C[C@H]1CC[C@H]2[C@@H]3CC=C4C[C@@H](O)CC[C@]4(C)[C@H]3CC[C@]12C` [Compound I-28], the inhibition at 400 µM in assay [2] (setting [4]) is 18.3%. Moreover, in assay [2] (setting [5]), the inhibition at 40 µM was 13.5%.
As for `C#C[C@H]1CC[C@H]2[C@@H]3CC=C4C[C@@H](O)CC[C@]4(C)[C@H]3CC[C@]12C` [Compound I-29], the inhibition at 400 µM in assay [2] (setting [4]) is 3.84%. Also, the inhibition at 40 µM in assay [2] (setting [5]) was determined as 8.26%.

The values above are taken from patent US5264427A, “20-substituted pregnene derivatives and their use as androgen synthesis inhibitors” (priority 1992, dated 1993).
